Structures can show the parent of a compound that is named as a salt. Where two headings read alike, the source gives them in different places.
Legend:
[1] = Hygroscopicity and storage stability of the drug substance as stated in the background art; conditions: during storage
[2] = Dissolution test, paddle method of the Korean Pharmacopoeia, 50 rpm, capsules with sinker, HPLC; format: physicochemical
Protocol: Dissolution tests were performed with examples 1˜6, comparative examples 1˜2, sibutramine free base itself and Reductil™ (Abbott Korea Limited) containing 10[…] of sibutramine hydrochloride monohydrate. To keep dissolution test condition similar, the contents of sibutramine in examples and comparative examples were evaluated with the below HPLC analysis condition and then the predetermined amount of examples, comparative examples and sibutramine free base itself were filled in one capsule to make capsules having 8.37[…] of sibutramine free base. These capsules were used in dissolution tests.
500[…] of pH 4.5 buffered solution [2.99 g of Sodium acetate trihydrate and 1.66[…] of acetic acid anhydrous were dissolved in 1 L of distilled water and then pH of the solution was adjusted to pH 4.5±0.05] and 500[…] of pH 6.8 buffered solution [118[…] of 0.2 mol/L NaOH solution was added to 250[…] of 0.2 mol/L […], and then distilled water was added to make the solution 1000[…]] were used as dissolution media. Paddle method of dissolution test of the Korean Pharmacopoeia was used and paddle was rotated at 50 rpm. Dissolution test was performed for 45 minutes and sinker was also used.
For HPLC analysis, mixture (350:640:10) of acetonitrile, water and tetrahydrofuran was used as mobile phase and ion pair reagent PIC B5 (Low UV) was added to the mobile phase to adjust retention time of peak, and then pH was adjusted to 3.0 with phosphoric acid. Wavelength for determination was 229[…] and flow rate was 1.5[…]/min and injection volume was 20[…].
Results were shown as percent (%) of sibutramine dissolved into dissolution media from test samples compared to the total amount of sibutramine contained in each sample.

[3] = Solubility and dissolution as stated in the background art; conditions: distilled water and pH 6.8 buffered solution
[4] = background art; cited from earlier work
[5] = as said in U.S. Pat. No. 6,900,245; cited from earlier work

Compound | storage stability in words [1] | percent of sibutramine dissolved into dissolution media ([2]; distilled water, 15 min) [%] | percent of sibutramine dissolved into dissolution media ([2]; distilled water, 30 min) [%] | percent of sibutramine dissolved into dissolution media ([2]; distilled water, 45 min) [%] | percent of sibutramine dissolved into dissolution media ([2]; pH 4.5 buffered solution, 15 min) [%] | percent of sibutramine dissolved into dissolution media ([2]; pH 4.5 buffered solution, 30 min) [%] | percent of sibutramine dissolved into dissolution media ([2]; pH 4.5 buffered solution, 45 min) [%] | dissolution in words ([2]; pH 6.8 buffered solution) | percent of sibutramine dissolved into dissolution media ([2]; pH 6.8 buffered solution, 15 min) [%] | percent of sibutramine dissolved into dissolution media ([2]; pH 6.8 buffered solution, 30 min) [%] | percent of sibutramine dissolved into dissolution media ([2]; pH 6.8 buffered solution, 45 min) [%] | solubility in words [3] | hygroscopicity in words [4] | solubility in words [5]
CC(C)CC(N(C)C)C1(c2ccc(Cl)cc2)CCC1 (stereo not drawn) [Sibutramine free base, N,N-dimethyl-1-[1-(4-chlorophenyl)-cyclobutyl]-3-methylbutylamine] | may become sticky gel phase during storage | 0 | 0 | 0 | 62 | 80 | 88 | did not practically dissolve | 0 | 0 | 0 | does not almost dissolve | – | –
CC(C)CC(N(C)C)C1(c2ccc(Cl)cc2)CCC1.Cl (stereo not drawn) [sibutramine hydrochloride anhydrous] | – | – | – | – | – | – | – | – | – | – | – | – | highly hygroscopic | –
CC(C)CC(N(C)C)C1(c2ccc(Cl)cc2)CCC1 (stereo not drawn) [sibutramine hydrochloride monohydrate] | – | – | – | – | – | – | – | – | – | – | – | – | non-hygroscopic | insufficient

From patent publication US20080194695A1, “Pharmaceutical Composition Containing Sibutramine Free Base and Manufacturing Method Thereof” (priority 2005, published 2008)
